# Values of other authors in patent publication US20120015039A1, “SUSTAINED RELEASE OF NUTRIENTS IN VIVO” (New World Pharmaceuticals, LLC, priority 2007, published 2012).
# Experiments:
# [1] = system: mice; details: mouse, in vivo, iv
# [2] = system: Na/K ATPase
Structure (SMILES),LD50 [1] [mg/kg],concentration at which formation of EP is inhibited [2]
COC(=O)C1=CO[C@@H](O)[C@@H]2C(CO)=CC[C@H]12 [Genipin],382,
[O]=[V]([O-])([O-])[O-] [vanadate],,less than 1 micromolar
